The source made the active and inactive calls. The rule behind the calls is not given here.
How the values were obtained:
[1] = target: RAC-alpha serine/threonine-protein kinase (Homo sapiens) (UniProt P31749); experiment: Inhibition of AKT at < 10 uM by IMAP assay
[2] = target: Cyclin-dependent kinase 7 (Homo sapiens) (UniProt P50613); experiment: Inhibition of CDK7 at < 10 uM by TR-FRET assay
[3] = target: Serine/threonine-protein kinase PLK1 (Homo sapiens) (UniProt P53350); experiment: Inhibition of PLK1 at < 10 uM by TR-FRET assay
Serine/threonine-protein kinase PLK1 (Homo sapiens), sequence (P53350 whole entry): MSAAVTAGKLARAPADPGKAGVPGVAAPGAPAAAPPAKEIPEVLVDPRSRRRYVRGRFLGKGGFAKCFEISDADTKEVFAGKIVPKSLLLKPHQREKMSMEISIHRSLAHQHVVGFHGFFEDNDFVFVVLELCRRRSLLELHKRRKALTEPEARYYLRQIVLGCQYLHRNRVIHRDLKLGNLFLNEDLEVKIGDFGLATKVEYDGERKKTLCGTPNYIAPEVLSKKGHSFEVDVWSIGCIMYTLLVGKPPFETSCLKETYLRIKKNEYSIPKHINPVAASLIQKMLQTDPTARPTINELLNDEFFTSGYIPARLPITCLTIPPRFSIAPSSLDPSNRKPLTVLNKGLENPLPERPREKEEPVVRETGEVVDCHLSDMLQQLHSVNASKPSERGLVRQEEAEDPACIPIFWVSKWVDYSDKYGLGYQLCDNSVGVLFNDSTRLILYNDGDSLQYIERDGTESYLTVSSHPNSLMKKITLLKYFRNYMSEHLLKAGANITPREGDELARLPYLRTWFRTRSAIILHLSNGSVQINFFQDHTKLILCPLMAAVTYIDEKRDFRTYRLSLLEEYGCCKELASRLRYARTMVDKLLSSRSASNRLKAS

[4] = target: Serine/threonine-protein kinase PLK2 (Homo sapiens) (UniProt Q9NYY3); experiment: Inhibition of PLK2 at < 10 uM by TR-FRET assay
Serine/threonine-protein kinase PLK2 (Homo sapiens), sequence (Q9NYY3 whole entry, looked up): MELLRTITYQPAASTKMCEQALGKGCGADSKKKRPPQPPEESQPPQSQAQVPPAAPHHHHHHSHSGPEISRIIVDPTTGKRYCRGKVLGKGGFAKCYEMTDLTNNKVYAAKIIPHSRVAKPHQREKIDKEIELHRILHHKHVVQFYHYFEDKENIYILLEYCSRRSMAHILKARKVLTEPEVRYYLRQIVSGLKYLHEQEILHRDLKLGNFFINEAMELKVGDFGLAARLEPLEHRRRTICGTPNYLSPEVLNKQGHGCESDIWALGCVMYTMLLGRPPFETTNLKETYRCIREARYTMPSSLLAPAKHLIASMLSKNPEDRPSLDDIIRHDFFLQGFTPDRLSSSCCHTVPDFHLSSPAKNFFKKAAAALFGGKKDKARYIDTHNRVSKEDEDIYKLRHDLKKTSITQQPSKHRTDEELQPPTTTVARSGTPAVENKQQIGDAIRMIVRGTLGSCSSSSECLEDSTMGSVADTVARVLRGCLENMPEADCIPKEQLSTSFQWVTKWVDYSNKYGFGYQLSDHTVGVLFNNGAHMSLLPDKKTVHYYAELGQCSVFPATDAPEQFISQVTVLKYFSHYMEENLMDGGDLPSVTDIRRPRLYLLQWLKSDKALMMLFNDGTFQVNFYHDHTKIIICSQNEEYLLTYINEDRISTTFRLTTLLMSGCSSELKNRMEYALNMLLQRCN

[5] = target: Protein kinase C alpha type (Homo sapiens) (UniProt P17252); experiment: Inhibition of human recombinant PKCalpha at < 10 uM after 10 mins by radiometric assay
[6] = target: Protein kinase C beta type (Homo sapiens) (UniProt P05771); experiment: Inhibition of human recombinant PKCbeta1 at < 10 uM after 10 mins by radiometric assay
Protein kinase C beta type (Homo sapiens), sequence (P05771 2-671 limits assumed): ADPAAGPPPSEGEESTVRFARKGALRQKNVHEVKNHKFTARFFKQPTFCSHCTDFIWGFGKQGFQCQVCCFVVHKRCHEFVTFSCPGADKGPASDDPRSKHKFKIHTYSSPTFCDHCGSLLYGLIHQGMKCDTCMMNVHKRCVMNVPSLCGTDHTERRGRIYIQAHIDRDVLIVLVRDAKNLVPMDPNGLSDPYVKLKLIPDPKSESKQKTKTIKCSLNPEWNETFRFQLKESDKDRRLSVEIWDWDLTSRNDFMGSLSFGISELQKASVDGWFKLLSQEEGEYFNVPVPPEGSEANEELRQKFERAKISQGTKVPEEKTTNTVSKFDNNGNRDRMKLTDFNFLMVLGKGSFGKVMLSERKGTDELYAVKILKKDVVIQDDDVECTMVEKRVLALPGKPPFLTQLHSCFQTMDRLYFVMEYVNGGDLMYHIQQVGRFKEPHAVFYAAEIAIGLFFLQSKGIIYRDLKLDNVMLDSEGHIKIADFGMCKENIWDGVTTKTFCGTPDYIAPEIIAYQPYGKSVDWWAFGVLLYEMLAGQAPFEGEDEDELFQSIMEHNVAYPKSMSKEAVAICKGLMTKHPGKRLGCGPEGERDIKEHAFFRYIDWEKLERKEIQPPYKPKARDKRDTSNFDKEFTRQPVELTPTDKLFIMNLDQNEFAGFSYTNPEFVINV

[7] = target: Protein kinase C delta type (Homo sapiens) (UniProt Q05655); experiment: Inhibition of human recombinant PKCdelta at < 10 uM after 10 mins by radiometric assay
Protein kinase C delta type (Homo sapiens), sequence (Q05655 whole entry, looked up): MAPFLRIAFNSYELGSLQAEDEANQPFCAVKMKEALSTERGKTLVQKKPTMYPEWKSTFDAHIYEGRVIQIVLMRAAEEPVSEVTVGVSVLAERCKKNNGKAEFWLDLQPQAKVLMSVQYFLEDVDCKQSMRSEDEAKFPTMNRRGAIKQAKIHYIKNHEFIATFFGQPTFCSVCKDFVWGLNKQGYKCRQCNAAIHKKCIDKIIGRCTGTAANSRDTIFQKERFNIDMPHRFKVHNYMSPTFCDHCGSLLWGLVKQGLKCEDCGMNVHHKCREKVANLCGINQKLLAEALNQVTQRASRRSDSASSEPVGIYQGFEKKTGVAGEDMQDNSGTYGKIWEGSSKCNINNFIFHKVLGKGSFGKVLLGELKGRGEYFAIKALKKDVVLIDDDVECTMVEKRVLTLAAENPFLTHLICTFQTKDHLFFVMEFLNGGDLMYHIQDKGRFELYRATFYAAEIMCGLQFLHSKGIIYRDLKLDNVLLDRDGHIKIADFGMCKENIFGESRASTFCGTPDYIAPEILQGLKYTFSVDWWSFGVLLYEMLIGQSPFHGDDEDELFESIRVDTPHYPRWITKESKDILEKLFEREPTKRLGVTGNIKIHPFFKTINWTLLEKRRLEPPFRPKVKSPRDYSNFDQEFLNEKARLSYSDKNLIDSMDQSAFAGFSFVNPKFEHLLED

[8] = target: Calcium/calmodulin-dependent protein kinase type II subunit alpha (Homo sapiens) (UniProt Q9UQM7); experiment: Inhibition of human recombinant CAMK2alpha at < 10 uM after 10 mins by radiometric assay
Calcium/calmodulin-dependent protein kinase type II subunit alpha (Homo sapiens), sequence (Q9UQM7 whole entry): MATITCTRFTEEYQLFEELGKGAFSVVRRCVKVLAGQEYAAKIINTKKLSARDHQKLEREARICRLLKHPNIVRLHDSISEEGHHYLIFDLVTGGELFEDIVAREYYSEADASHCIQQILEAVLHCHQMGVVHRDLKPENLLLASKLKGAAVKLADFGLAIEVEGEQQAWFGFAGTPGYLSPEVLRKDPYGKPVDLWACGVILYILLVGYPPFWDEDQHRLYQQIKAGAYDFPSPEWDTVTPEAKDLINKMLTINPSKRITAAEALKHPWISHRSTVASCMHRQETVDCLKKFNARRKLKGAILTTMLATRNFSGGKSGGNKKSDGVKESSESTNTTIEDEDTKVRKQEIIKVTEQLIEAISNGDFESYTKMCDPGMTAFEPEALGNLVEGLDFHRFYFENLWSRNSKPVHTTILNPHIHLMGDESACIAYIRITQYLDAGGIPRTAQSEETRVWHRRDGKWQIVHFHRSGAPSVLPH

[9] = Inhibition of human recombinant PKD3 after 10 mins by radiometric assay

RAC-alpha serine/threonine-protein kinase (Homo sapiens), sequence (P31749 whole entry): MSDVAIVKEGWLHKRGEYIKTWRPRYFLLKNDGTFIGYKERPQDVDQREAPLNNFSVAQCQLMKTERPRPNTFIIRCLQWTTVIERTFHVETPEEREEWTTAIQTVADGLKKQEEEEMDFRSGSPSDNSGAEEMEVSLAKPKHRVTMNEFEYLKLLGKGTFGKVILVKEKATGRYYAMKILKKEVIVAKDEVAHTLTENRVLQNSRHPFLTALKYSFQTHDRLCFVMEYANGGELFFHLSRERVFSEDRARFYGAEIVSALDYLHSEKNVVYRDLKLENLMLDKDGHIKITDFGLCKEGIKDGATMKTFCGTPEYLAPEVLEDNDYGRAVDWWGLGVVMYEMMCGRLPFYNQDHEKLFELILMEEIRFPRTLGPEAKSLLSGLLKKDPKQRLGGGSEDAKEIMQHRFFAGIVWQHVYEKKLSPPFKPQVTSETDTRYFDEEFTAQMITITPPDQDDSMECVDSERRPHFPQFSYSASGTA
Cyclin-dependent kinase 7 (Homo sapiens), sequence (P50613 whole entry): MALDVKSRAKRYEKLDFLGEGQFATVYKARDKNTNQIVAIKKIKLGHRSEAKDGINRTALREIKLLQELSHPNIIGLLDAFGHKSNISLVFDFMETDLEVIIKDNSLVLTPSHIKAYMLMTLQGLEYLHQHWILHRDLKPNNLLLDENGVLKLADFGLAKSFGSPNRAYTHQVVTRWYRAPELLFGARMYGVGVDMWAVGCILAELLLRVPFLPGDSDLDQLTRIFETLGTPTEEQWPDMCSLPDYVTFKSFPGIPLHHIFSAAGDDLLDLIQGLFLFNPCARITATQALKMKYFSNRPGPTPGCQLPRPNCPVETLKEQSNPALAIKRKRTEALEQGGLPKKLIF

Structure (SMILES)	inhibition [1]	inhibition [2]	inhibition [3]	inhibition [4]	inhibition [5]	inhibition [6]	inhibition [7]	inhibition [8]	IC50 [9] [nM]
COc1ncc2sc3c(c2n1)SCCNC3=O	inactive	inactive	inactive	inactive	inactive	inactive	inactive	inactive	50
O=C1NCCCSc2c1sc1ccc(O)cc21	inactive	inactive	inactive	inactive	inactive	inactive	inactive	inactive	–
O=C1NCCCc2c1oc1ccc(O)cc21	inactive	inactive	inactive	inactive	inactive	inactive	inactive	inactive	–
O=C1NCCCc2c1[nH]c1ccc(O)cc21	inactive	inactive	inactive	inactive	inactive	inactive	inactive	< 40%	–
COc1ccc2sc3c(c2c1)SCCCNC3=O	inactive	inactive	inactive	inactive	inactive	inactive	inactive	inactive	–

Continued, values first:

inhibition [1]	inhibition [2]	inhibition [3]	inhibition [4]	inhibition [5]	inhibition [6]	inhibition [7]	inhibition [8]	IC50 [9] [nM]	Structure (SMILES)
inactive	inactive	inactive	inactive	inactive	inactive	inactive	inactive	–	COc1ccc2sc3c(c2c1)SCCNC3=O
inactive	inactive	inactive	inactive	inactive	inactive	inactive	inactive	–	O=C1NCCSc2c1sc1ccc(O)cc21
inactive	inactive	inactive	inactive	inactive	inactive	inactive	< 40%	–	[N-]=[N+]=Nc1ccc2sc3c(c2c1)SCCNC3=O
